The text below walks through data of ChEMBL document CHEMBL1126250, “Alpha-halo [(phenylphosphinyl)methyl]phosphonates as specific inhibitors of Na(+)-gradient-dependent Na(+)-phosphate cotransport across renal brush border membrane” (1992).

The species named for the assay is Rattus norvegicus. As to the kind of experiment: In vitro inhibition of Na(+)-gradient-dependent uptake of 32 inorganic phosphate (Pi) by BBM vesicles freshly prepared from the rat renal cortex. The assay is classed as functional. More on the design: concentration or dose not given beside the values.
Broadly, the Inhibition is the change of the read-out against control, counted positive when it falls. In the case of `O=C(O)P(=O)(O)O` [FOSCARNET], the Inhibition is given as -63%.
For `O=P(O)(O)C(Cl)(Cl)P(=O)(O)c1ccccc1`, the Inhibition is listed as -39%.
The result for `O=P(O)(O)C(Br)(Br)P(=O)(O)c1ccccc1` reads -22%; that for `O=P(O)(O)C(F)P(=O)(O)c1ccccc1` (configuration not stated), -49%.
Next, `O=P(O)(O)C(Cl)(Br)P(=O)(O)c1ccccc1` (configuration not stated): -31%.
Regarding `O=P(O)(O)C(F)(F)P(=O)(O)c1ccccc1`, the Inhibition is recorded as -39%.
As for `O=P(O)(O)C(Cl)P(=O)(O)c1ccccc1` (configuration not stated), the Inhibition is -30%.
